Read-outs that look alike come from different tables or passages of the source.
Molecular target: T1, HDM2 (Homo sapiens, UniProt Q00987)
T1 construct: Thioredoxin (N); made in house; host or cells: E. coli strain BL21(DE3)Rosetta
Assay: HDM2 FRET assay (inhibition of binding of FITC labeled p53-pocket peptide to HDM2)
Settings: read-out: FRET IC50
How it was run: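 Final: 0.5 nM His-HDM2, 3 nM FITC peptide, 0.25 nM Tb anti-His Ab; PBS, 0.01% BSA, 0.01% Tween-20; 0.1% DMSO.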

T1 sequence (Q00987 17-125): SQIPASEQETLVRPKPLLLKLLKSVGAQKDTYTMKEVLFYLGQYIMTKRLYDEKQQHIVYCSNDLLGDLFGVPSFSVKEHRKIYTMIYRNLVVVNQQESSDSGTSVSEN

With `CC(C)C1CCCCN1c1nc2nc(C(=O)O)nc(N[C@H](C)C3CCC3)c2n1Cc1ccc(C(F)(F)F)cc1` (stereo partly drawn) [Example 9.119, 6-{[(1R)-1-cyclobutylethyl]amino}-8-[2-(1-methylethyl)piperidin-1-yl]-7-[4-(trifluoromethyl)benzyl]-7H-purine-2-carboxylic acid] as the molecule, how does the IC50 (Table 9) read?
The IC50 was 9.16 nM.

For `C[C@@H](Nc1nc(-c2noc(=O)[nH]2)nc2nc(N3CCC[C@H]4CCCC[C@@H]43)n(C[C@H]3CC[C@H](C)CC3)c12)C1CCC1` [Example 11.60, 3-(6-{[(1R)-1-cyclobutylethyl]amino}-7-[(trans-4-methylcyclohexyl)methyl]-8-[(4aR,8aS)-octahydroquinolin-1(2H)-yl]-7H-purin-2-yl)-1,2,4-oxadiazol-5(4H)-one], which IC50 (Table 11) is on record?
Its IC50 is 10.5 nM.

For `C[C@@H](Nc1nc(-c2noc(=O)[nH]2)nc2nc(CC(C)(C)O)n(C[C@H]3CC[C@H](C)CC3)c12)C1CCC1` [Example 22.16, 3-(6-{[(1R)-1-cyclobutylethyl]amino}-8-(2-hydroxy-2-methylpropyl)-7-[(trans-4-methylcyclohexyl)methyl]-7H-purin-2-yl)-1,2,4-oxadiazol-5(4H)-one], which IC50 (Table 22) is on record?
The IC50 was 55.6 nM.

Which IC50 (Table 22) does the source give for `C=C(c1nc2nc(-c3noc(=O)[nH]3)nc(N[C@H](C)C3CCC3)c2n1C[C@H]1CC[C@H](C)CC1)C(C)(C)C` [Example 22.11, 3-(6-{[(1R)-1-cyclobutylethyl]amino}-8-(2,2-dimethyl-1-methylidenepropyl)-7-[(trans-4-methylcyclohexyl)methyl]-7H-purin-2-yl)-1,2,4-oxadiazol-5(4H)-one] here?
The IC50 was 5.73 nM.

`C[C@@H](Nc1nc(-c2noc(=O)[nH]2)nc2nc(C3(O)CCCCC3)n(C[C@H]3CC[C@H](C)CC3)c12)C1CCC1` [Example 22.43, 3-(6-{[(1R)-1-cyclobutylethyl]amino}-8-(1-hydroxycyclohexyl)-7-[(trans-4-methylcyclohexyl)methyl] -7H-purin-2-yl)-1,2,4-oxadiazol-5(4H)-one] was tested. Which IC50 (Table 22) did it give?
The IC50 was 13.1 nM.

Which IC50 (Table 21) does the source give for `C[C@@H](Nc1nc(C(=O)O)nc2nc(C3=C(c4ccccc4)CCCC3)n(C[C@H]3CC[C@H](C)CC3)c12)C1CCC1` [Example 21.18, 6-{[(1R)-1-cyclobutylethyl]amino}-7-[(trans-4-methylcyclohexyl)methyl]-8-(2-phenylcyclohex-1-en-1-yl)-7H-purine-2-carboxylic acid] here?
The IC50 was 6.5 nM.

`C[C@@H](Nc1nc(-c2noc(=O)[nH]2)nc2nc(N3CCOC4CCCC43)n(C[C@H]3CC[C@H](C)CC3)c12)C1CCC1` (single isomer, unassigned) [Example 11.133] was tested. Which IC50 (Table 11) did it give?
The IC50 was 0.344 nM.

With `C[C@H]1CC[C@H](Cn2c(N3CCC[C@H]3CF)nc3nc(-c4n[nH]c(=O)o4)nc(-c4cncc(Cl)c4)c32)CC1` [Example 16.104, 5-{6-(5-chloropyridin-3-yl)-8-[(2S)-2-(fluoromethyl)pyrrolidin-1-yl]-7-[(trans-4-methylcyclohexyl)methyl]-7H-purin-2-yl}-1,3,4-oxadiazol-2(3H)-one] as the molecule, how does the IC50 (0.5 nM HDM2 (residues 17 to 125), 3nM peptide, two hour incubation at room temperature) read?
Its IC50 is 3.91 nM.

Which IC50 (Table 10) does the source give for `C=CCN(c1nc2nc(C(=O)O)nc(N[C@H](C)C3CCC3)c2n1Cc1ccc(C(F)(F)F)cc1)C(C)c1ccccn1` (stereo partly drawn) [Example 10.30, 8-(Allyl(1-(pyridin-2-yl)ethyl)amino)-6-(((R)-1-cyclobutylethyl)amino)-7-(4-(trifluoromethyl)benzyl)-7H-purine-2-carboxylic acid] here?
The IC50 was 9.07 nM.

For `C[C@@H](Nc1nc(C(=O)O)nc2nc(NC(C)(C)c3ccccc3)n(Cc3ccc(C(F)(F)F)cc3)c12)C1CCC1` [Example 9.123, 6-{[(1R)-1-cyclobutylethyl]amino}-8-[(1-methyl-1-phenylethyl)amino]-7-[4-(trifluoromethyl)benzyl]-7H-purine-2-carboxylic acid], which IC50 (Table 9) is on record?
The IC50 was 1.85 nM.

With `CC(Nc1nc2nc(-c3noc(=O)[nH]3)nc(N[C@H](C)C3CCC3)c2n1C[C@H]1CC[C@H](C)CC1)c1cscn1` (stereo partly drawn) [Example 11.88, 3-(6-{[(1R)-1-cyclobutylethyl]amino}-7-[(trans-4-methylcyclohexyl)methyl]-8-{[1-(1,3-thiazol-4-yl)ethyl]amino}-7H-purin-2-yl)-1,2,4-oxadiazol-5(2H)-one] as the molecule, how does the IC50 (Table 11) read?
The IC50 was 3.83 nM.
